Test results: patent US9623062B2, “Anti-ageing activity of camphor in fibroblast cell line” (Jeju National University Industryacademic Cooperation …, priority 2014, dated 2017)

How the values were obtained:
[1] = test system: fibroblasts; test: ROS production by DCFH-DA flow cytometry in fibroblasts; assay type: cell-based, human; conditions: for increase of ROS production compared to non-treated cells: fibroblasts, 24 hours after treatment, FIG. 4A
Method: To analyze the reactive oxygen species (ROS), the cells were seeded in 60 mm culture dishes at a density of 2×10^4 cells/mL, and then treated with 10% chamomile hydrosol for 0, 6, 12, and 24 hours. The cells were stained with 2′-7′-dichlorodihydrofluorescein diacetate (DCFH-DA) for 15 minutes, collected in a 15 mL tube, and then washed with PBS. The cells were re-suspended in 500 μl of PBS, and measured for a level of ROS. For the cell cycle analysis, the treated cells were harvested and fixed overnight in 70% ethanol at 4° C. After 24 hours, the cells were rehydrated in 2 mM EDTA-BPS with RNase A (25 ng/ml), and stained with PI (40 μg/ml). All the analyses were performed using a FACS Caliber flow cytometer (BD Biosciences), and each sample were analyzed by counting 10,000 cells.

[2] = test system: fibroblast cells (SA-β-gal); test: Senescence-associated β-galactosidase activity in fibroblasts; assay type: cell-based, human
Method: Fibroblast cells were incubated in 6-well plate at a density of 1×10^4 cells/well. Then the culture supernatants were removed and the cells were treated 72 h with only camphor (260 μM) or H2O2 600 μM and 800 μM or co-treated camphor and H2O2 in fresh media; ethanol containing media and media only were used as negative controls. In some experiments, H2O2 was pretreated on fibroblast cells 72 h and replaced with or without camphor treatment (260 μM) 48 h. After treatment, cells were washed twice with PBS and fixed 10 minutes in 4% formaldehyde. Then, this was followed by washing 3 times with wash solution (100 mM Na2HPO4 set to pH 6 with 100 mM Citric Acid). Cells was incubated overnight at 37° C. in freshly made staining solution (5 mM K3Fe(CN)6, 5 mM K4Fe(CN)6, 2 mM MgCl2, 150 mM NaCl, 40 mM Na2HPO4, 1 mg/mL bromo-chloro-indolyl-galactopyranoside (X-Gal), set to pH 6 with 100 mM citric acid). Next day, cells was washed the staining solution with PBS and taken picture by microscope and β-galactosidase-positive cell number ratio was calculated.

[3] = test system: Primary dermal fibroblast cells; test: MTT cell viability of fibroblasts; assay type: cell-based, human
Method: Fresh human foreskin specimens were obtained from 8 donors aged from 6 to 12 years, who received a routine circumcision procedure of Jeju National University Hospital, Korea. After being digested with 0.1% […] (Worthington Biochemical Corporation, Lakewood, N.J.) at 4° C. overnight, the epidermal layers were removed, and the remaining dermal parts were further digested with 0.1% collagenase I (Worthington) at 37° C. for another 4 h. The digested cells were then passed through a […] cell strainer (BD Biosciences, Mississauga, ON, Canada), centrifuged, and resuspended in high-glucose DMEM (Gibco, Invitrogen, Carlsbad, Calif.), supplemented with 10% FBS (Gibco, Invitrogen, Carlsbad, Calif.), 100 U/ml penicillin, and 100 μg/ml streptomycin (all from PAA Laboratories, Linz, Austria). Cells were seeded on tissue culture plates at 1×10^3 cells/cm2, and maintained at 37° C. with 5% CO2. After 24 h, the plates were washed with PBS to remove residual non-adherent cells. The resulting adherent cells were grown to confluence within 7 days. Primary dermal fibroblast (2×10^4 cells/ml) cells were plated in 96-well plates in 200 μl of medium containing 10% FBS. After 24 h, the cells were treated with different concentrations of chamomile hydrosol or camphor. […] Cell viability was determined from the absorbance at 570 nm, measured using a Sunrise microplate reader (Tecan, Salzburg, Austria). […]

[4] = test system: PI3K/AKT and MAPK signaling cascades; test: Western blot of PI3K/AKT/ERK/4E-BP1 phosphorylation in fibroblasts; assay type: cell-based, human
Method: (§1) After 0, 6, 12, 24 h treatment, cells were collected and lysed in lysis buffer (100 mM Tris-Hcl [pH 8], 250 mM NaCl, 0.5% Nonidet P-40, and 1× protease inhibitor cocktail) and sonicated few times then kept on ice for 30 min. The cell lysates were centrifuged at 13,000 rpm for 30 min at 4° C. The supernatant were collected and determined the concentration by BCA™ Protein assay (Pierce, Rockford, Ill.). For detecting MMP 1 and collagen I, and collagen III, we collected the media and centrifuging 400×g for 1 h at 4° C. by using Amicon Ultra 10K and determined the concentration by Bradford assay. Aliquots of the lysated were separated by 10-15% SDS-PAGE, and transferred to PVDF membranes using a glycine transfer buffer (192 mM glycine, 25 mM Tris-HCl [pH 8.8], and 20% [v/v] methanol). After blocking with Skim milk 5% overnight at 4° C., the membrane were incubated with primary antibodies for 1 h RT or overnight at 4° C. and then for 1 h with secondary antibodies. Primary antibodies were diluted at ratio 1:1000 whereas the anti-β-actin primary and secondary antibodies (horseradish peroxidase-conjugated goat anti-mouse IgG) (Vector Laboratories, Burlingame, Calif.) were diluted at ratio 1:10,000. Protein bands were detected using the WEST-ZOL® plus Western Blot Detection System (iNtRON, Gyeonggi-do, Korea).

[5] = test system: Fibroblast cells; test: Total collagen assay (Sircol); assay type: cell-based, human; conditions: cells treated with camphor vs non-treated control, FIG. 5C
Method: Total collagen was quantified in culture media using the Sircol Soluble Collagen Assay kit (Biocolor, Newtownabbey, Northern Ireland) by quantitative dye-binding method, according to the manufacturer's instruction. Fibroblast cells were seeded in 6-well culture plates at density 2×10^5 cells/well with 2 ml/well media with or without camphor (260 μM) and incubated for different time points (6 h, 12 h, 24 h). After treatment, 200 μl sample medium of each group was transferred to a 1.5 ml centrifuge tube and 1 ml Sircol dye reagent was added into each tube. The mixed contents were incubated at room temperature for 30 min. Then the tubes were centrifuged at 10000 g for 10 minutes. The supernatants were drained off and discarded. The remaining pellets were mixed with 1 ml Alkali reagent and gently mixed until the pellets dissolved completely. The solutions were transferred to a 96-well plate and read absorbance at 540 nm. A standard curve was made simultaneously by standard collagen stock solution (0.5 mg/m1).

[6] = test system: collagen types I, III and IV and collagenase MMP1; test: Western blot of collagen types and MMP1; assay type: cell-based, human; conditions: camphor treatment
Method: as §1

[7] = target: T1, porcine pancreatic elastase (PPE (Type IV)) (Sus scrofa, UniProt P00772); test: Elastase assay; assay type: biochemical; conditions: camphor 0-3200 μM, n-Suc-(Ala)3-nitroanilide substrate, FIG. 5B
T1 construct: purchased Sigma
T1 sequence (P00772 27-266): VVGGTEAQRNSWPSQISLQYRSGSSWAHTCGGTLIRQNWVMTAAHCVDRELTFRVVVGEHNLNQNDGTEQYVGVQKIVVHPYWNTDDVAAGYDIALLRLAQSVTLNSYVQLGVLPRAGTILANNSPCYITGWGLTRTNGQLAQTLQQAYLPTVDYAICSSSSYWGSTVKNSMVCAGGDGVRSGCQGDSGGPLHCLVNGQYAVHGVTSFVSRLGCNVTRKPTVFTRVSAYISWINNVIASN
Method: The inhibition of different concentrations of camphor on porcine pancreatic elastase (PPE (Type IV), Sigma) activity was examined using n-Suc-(Ala)3-nitroanilide as the substrate, and the release of nitroaniline was measured at 410 nm. The reaction was carried out in a 200 mM Tris-HCl buffer (pH 8.0) containing 0.8 mM N-Suc-(Ala)3-nitroanilide and 5 μg/mL elastase. Different concentrations of camphor (0-3200 μM) were added to the reaction mixture to reach a final volume of 320 μl, and elastase inhibition was assessed in 96 well-plate reader at 25° C. The reaction mixture was pre-incubated for 10 minutes before addition of the substrate. The change in absorbance was measured at 410 nm using a 96-well reader. The percentage of elastase activities was calculated by the following equation: Enzyme activity (%)=100−[(B−A)/A]×100]
wherein A represents an absorbance at 410 nm without camphor, and B represents an absorbance at 410 nm with camphor.

SMILES | increase of ROS production compared to non-treated cells [1] | SA-β-gal-positive cells ([2]; H2O2 alone vs control, FIG. 5A) | cell viabilities enhanced by camphor when ROS scavenged by NAC ([3]; NAC pre-treatment, then camphor, FIG. 4C) | camphor-induced ROS production after NAC pre-treatment ([1]; fibroblasts pre-treated with NAC, then camphor 24 hours, FIG. 4B) | phosphorylation of PI3K, AKT, 4EBP1, and ERK increased by camphor, after NAC pre-treatment ([4]; NAC pre-treatment plus camphor, FIG. 4D) | fibroblast viability ([3]; camphor from 32.25 μM to 260 μM, FIG. 3A) | total volume of collagen [5] | expression of MMP1 [6] | volume of collagen types III and IV ([6]; FIG. 5D) | elastase activity inhibition [7] | phosphorylated forms of 4E-BP1 ([4]; fibroblasts treated with camphor, FIG. 3B) | phosphorylation of PI3K, AKT, and ERK ([4]; fibroblasts treated with camphor, time-dependent, FIG. 3B) | reversal of cellular senescence ([2]; cells pre-treated with H2O2 at 800 μM, then camphor) | SA-β-gal-positive cells ([2]; co-treatment of camphor with 600 and 800 μM H2O2, 72 h) | number of senescent cells ([2]; pre-treated with 600 μM H2O2 for 3 days, then camphor for 2 days)
OO [H2O2, reference compound] | 53% | dramatically induced SA-β-gal-positive cells | – | – | – | – | – | – | – | – | – | – | – | – | –
CC(=O)N[C@@H](CS)C(=O)O [NAC, N-acetyl-L-cysteine, reference compound] | – | – | decreased | decreased the induced ROS production | reduced the phosphorylation | – | – | – | – | – | – | – | – | – | –
CC1(C)C2CC[C@@]1(C)C(=O)C2 [camphor, (1R)-1,7,7-Trimethylbicyclo[2.2.1]heptan-2-one] | approximately 13% | – | – | – | – | increased the fibroblast viability | increased | no change | increased | inhibited the elastase activity in a concentration-dependent manner | observed | increased the phosphorylation | did not significantly reverse the cellular senescence | reduced the SA-β-gal-positive cells | significantly decreased
